Values after ≈ are worked out from the molar mass of the structure shown.
Details: buffer; pH 7.4; 200.0 µM

Compound	solubility kinetic [µg/mL]
CCn1c(SCCN2CCOCC2)nc2c1c(=O)n(C)c(=O)n2C	> 53
O=C(Nc1ccno1)Nc1ccc(Cl)cc1Cl	5.4 (≈ 19.8 µM)
CN1C(=O)CSC1=Nc1cccc(Cl)c1	34.2 (≈ 142 µM)
CCOC(=O)c1ccc(NC(=O)c2ccco2)cc1	> 38.9
Cc1ccc(CNCCc2ccccc2F)s1	33.2 (≈ 133 µM)
CC(=O)N1c2ccc(Cl)cc2C2OCCC2C1c1ccco1 (stereo not given)	42.2 (≈ 133 µM)
CSc1ncc(C(=O)Nc2ccccc2F)c(-c2ccccc2)n1	1.3 (≈ 3.83 µM)
CN(c1ccccc1)S(=O)(=O)c1ccc(NC(=O)C2CC2)cc1	2.3 (≈ 6.96 µM)
Cc1oc(-c2cc(F)cc(F)c2)nc1CN1CCSCC1	26.3 (≈ 84.7 µM)
CC(=O)Oc1ccccc1/C=C/c1nc2ccccc2c(=O)o1	27.2 (≈ 88.5 µM)
COc1nc(NC(=O)c2ccc(F)cc2)nc(OC)c1-c1ccccc1	6 (≈ 17 µM)
N/C(Cc1ccc([N+](=O)[O-])cc1)=N\OC(=O)c1ccco1	18 (≈ 62.2 µM)
O=C(NC1CCC(O)CC1)c1ccc(-c2ccc(Cl)cc2)o1 (stereo not given)	18.7 (≈ 58.5 µM)
Cc1c(C(=O)Oc2cccc3cccnc23)cccc1[N+](=O)[O-]	7.9 (≈ 25.6 µM)
COc1ccc(C(=O)N2CC(c3ccccc3)CC2=O)cc1 (stereo not given)	3.4 (≈ 11.5 µM)
COc1ccc2oc(=O)c(C(=O)NCc3ccco3)cc2c1	4.8 (≈ 16 µM)
CCCCNC(=O)c1cc2c(=O)n3cccc(C)c3nc2s1	1.3 (≈ 4.12 µM)
Cc1ccc(C)c(Nc2cc(C)nc3ccccc23)c1	> 39.4
COCCN(C(=O)COC(=O)Cc1c(C)nc2ccccc2c1C)c1c(N)n(CC(C)C)c(=O)[nH]c1=O	64.2 (≈ 125 µM)
Cc1nc(N)ncc1-c1ccc2c(c1)OCO2	10.8 (≈ 47.1 µM)
CCCCOc1cccc(C(=O)Nc2ccccc2N2CCCC2)c1	1.2 (≈ 3.55 µM)
CN(c1ccccc1)S(=O)(=O)c1cccc2ccccc12	2.2 (≈ 7.4 µM)
CC(Oc1ccc(Cl)cc1Cl)/C(N)=N/O (stereo not given)	30.2 (≈ 121 µM)
O=C(Nc1ccc2ccccc2c1)c1ccccc1O	0.7 (≈ 2.66 µM)

Compound	solubility kinetic [µg/mL]
C#CC(C)(C)NC(=S)NC1CC2C=CC1C2 (stereo not given)	28 (≈ 119 µM)
COc1cc(/C=C\C(=O)O)cc(S(=O)(=O)N2CCCCCC2)c1OC	52.8 (≈ 143 µM)
c1ccc2c(c1)CC1(CCCC1)N=C2N1CCOCC1	35.5 (≈ 131 µM)
COc1ccc(NC(=O)CCOc2ccc(C)cc2)c(OC)c1	29.6 (≈ 93.9 µM)
Cc1snc(SCc2ccc(F)cc2)c1C#N	3 (≈ 11.3 µM)
Cc1ccc(NC(=O)C(Cc2ccccc2)n2cccc2)cc1 (stereo not given)	1.9 (≈ 6.24 µM)
NS(=O)(=O)c1ccc(NC(=O)c2cccc3ccccc23)cc1	3.1 (≈ 9.5 µM)
Cc1cc(C(=O)OCC(=O)Nc2c(Cl)cccc2Cl)c(C)o1	8.7 (≈ 25.4 µM)
S=c1nc(Cc2ccccc2)[nH]c2ccccc12	2.4 (≈ 9.51 µM)
O=C(Nc1cc(=O)[nH]c(=O)[nH]1)c1cc(Cl)ccc1Cl	> 45
Cc1cc(C)cc(NC(=O)C(=S)NCc2ccccc2)c1	< 0.3
CC(C)C(=O)N1CCN(c2ccccc2NC(=S)NC(=O)/C=C/c2ccco2)CC1	1.6 (≈ 3.75 µM)
Cc1ccc(C(C)NC(=O)c2c(-c3ccccc3)noc2C)cc1C (stereo not given)	2.4 (≈ 7.18 µM)
COc1ccc(-n2c(C)cc(=O)[nH]c2=O)cc1	> 34.8
C=CCn1c(SCC(C)=O)nnc1-c1ccc2ncccc2c1	> 48.7
CC(C)(C)c1ccc(C(=O)Nc2ccc(NC(=O)C(=O)O)cc2)o1	44.5 (≈ 135 µM)
C=CCNC(=O)CN1c2cccc3cccc(c23)S1(=O)=O	40.4 (≈ 134 µM)
CCCn1c(=O)c2[nH]c(-c3ccc(S(=O)(=O)O)cc3)nc2n(CCC)c1=O	> 58.9
NCCc1nnc(SCC(=O)Nc2cccc(Cl)c2)o1	> 46.9
CCC(=O)c1c[nH]c(C(=O)N2CCOCC2)c1	33.7 (≈ 143 µM)
CC1CCN(S(=O)(=O)c2ccc3c(c2)n(C)c(=O)n3C)CC1	> 48.5
COC(=O)C(Cc1ccc(O)cc1)NC(=O)NC12CC3CC(CC(C3)C1)C2 (stereo not given)	27.5 (≈ 73.8 µM)
O=C(CSc1cccc2cccnc12)Nc1ccccc1F	7.3 (≈ 23.4 µM)
CC(C(=O)NC1CCCCCC1)c1ccc([N+](=O)[O-])cc1 (stereo not given)	7.1 (≈ 24.5 µM)

Compound	solubility kinetic [µg/mL]
C=CCC1(C#N)C(=S)NC(C)=C(C(=O)OCC)C1c1ccccc1 (stereo not given)	> 51.1
Cc1ccc(S(=O)(=O)N2CCCCC2C)cc1[N+](=O)[O-] (stereo not given)	24.2 (≈ 81.1 µM)
CCOc1ccc(NC(=O)CNc2cccc(S(=O)(=O)N3CCCCCC3)c2)cc1OCC	18.8 (≈ 39.5 µM)
O=C(NC1CC1)c1ccc(NS(=O)(=O)c2ccccc2)cc1	> 47.5
Cc1ccc(S(=O)(=O)c2cc3ccccc3nc2N)cc1	0.5 (≈ 1.68 µM)
CC1CCCCN1C(=O)CCS(=O)(=O)Cc1ccccc1 (stereo not given)	35 (≈ 113 µM)
CCCCCn1c(N2CCCC2)nc2c1c(=O)n(C)c(=O)n2C	> 47.9
Cc1ccc(CNC(=O)c2nccnc2C(=O)O)cc1	> 40.7
S=C(Nc1ccccn1)NC1CCCCC1	5.7 (≈ 24.2 µM)
O=C(O)c1cc(-c2ccccc2)n(-c2ccc(F)cc2)n1	> 42.3
O=c1oc(-c2ccc([N+](=O)[O-])cc2)nc2ccccc12	0.3 (≈ 1.12 µM)
COc1cccc(C(=O)Nc2ccc3c(c2)n(C)c(=O)n3C)c1	> 46.7
O=C(O)CSc1nc2ccccc2n1-c1ccccc1	> 42.6
Cc1nccc(-c2cccc(NC(=O)Nc3ccc(Cl)cc3)c2)n1	0.6 (≈ 1.77 µM)
CC1=NN(C(=O)c2ccccc2C)C(O)(c2ccc(Cl)cc2)C1 (stereo not given)	> 49.3
CC1CC(C)CN(S(=O)(=O)c2ccc(C(=O)N(C)Cc3ccccc3)cc2)C1 (stereo not given)	13.7 (≈ 34.2 µM)
CCC(=O)NC(=S)Nc1ccc(S(=O)(=O)NC2CCCCC2)cc1	0.4 (≈ 1.08 µM)
COc1cc(Cl)c(C)cc1NC(=O)COC(=O)C1CC1C (stereo not given)	29.9 (≈ 95.9 µM)
Cc1onc(-c2ccccc2Cl)c1C(=O)N1CCN(C)CC1	> 48
CCCCn1c(CCCNC(=O)c2ccco2)nc2ccccc21	> 48.8
COc1ccc(CN2CCc3c([nH]c4ccccc34)C2)cc1Br	9.8 (≈ 26.4 µM)
Cl.N[C@@H]1C[C@H]1c1ccccc1	> 25.4
COc1cccc(C(=O)Nc2cc(Cl)c(O)c(Cl)c2)c1	15 (≈ 48.1 µM)
CCc1nc(SCC(=O)Nc2ccc(N(C)C)cc2)n[nH]1	> 45.8

Compound	solubility kinetic [µg/mL]
CC(C)(C)CN1CCN(CC#Cc2ccccc2)CC1CCO (stereo not given)	> 47.2
Cc1ccc(C(=O)Nc2cccc(C(O)c3ccccc3)c2)cc1 (stereo not given)	2.5 (≈ 7.88 µM)
COc1ccc(CN2CSC(=S)N(Cc3ccc(OC)cc3)C2)cc1	0.8 (≈ 2.14 µM)
Cc1ccc(OCCC(=O)Nc2ccc(C)c(F)c2)cc1	1.4 (≈ 4.87 µM)
O=C(CN1C(=O)NC2(CCCC2)C1=O)Nc1ccccc1N1CCCC1	46.4 (≈ 130 µM)
COc1ccccc1Oc1ccc2c(c1)C(=O)N(CC1CCCO1)C2=O (stereo not given)	40.3 (≈ 114 µM)
CC(C(=O)N1CCCC1)N(C)CC(=O)Nc1cccc(F)c1 (stereo not given)	37 (≈ 120 µM)
COc1cc(C(F)(F)F)c(C(=O)N(C)Cc2cccc(Cl)c2)cn1	43.6 (≈ 122 µM)
CCN(C(=S)Nc1ccc(OC(F)F)cc1)C1CCCCC1	5.4 (≈ 16.4 µM)
N#CCOC(=O)C1c2ccccc2Oc2ccccc21	35.2 (≈ 133 µM)
Cc1cccn2cc(-c3ccc(Cl)cc3)nc12	2.7 (≈ 11.1 µM)
O=C(CSc1nc2ccccc2s1)NCC1CCCO1 (stereo not given)	> 46.3
COc1ccc(OC)c(NC(=O)COC(=O)Cc2ccsc2)c1	36.2 (≈ 108 µM)
O=C(Nc1ccc([N+](=O)[O-])cc1)c1ccccc1	2.2 (≈ 9.08 µM)
CCc1ccccc1NC(=S)NCCSc1ccc(Cl)cc1	1.8 (≈ 5.13 µM)
O=C(NCCOc1ccc(Cl)cc1)c1ccco1	25.9 (≈ 97.5 µM)
CC(C)CNC(=O)c1cccc2c1-c1ccccc1C2=O	2.5 (≈ 8.95 µM)
CC(Oc1cccnc1[N+](=O)[O-])C(=O)Nc1ccc(F)cc1 (stereo not given)	> 45.8
N/C(=N\OC(=O)c1ccc(F)cc1)c1ccc(Br)cc1	0.4 (≈ 1.19 µM)
O=C(O)/C=C/C(=O)Nc1ccc(Oc2ccccc2)cc1	> 42.5
S=C(NCc1cccnc1)Nc1ccc(Cl)cc1Cl	> 46.8
O=c1c2ccccc2n(CC(O)CN2CCCCC2)c2ccccc12 (stereo not given)	> 50.5
Cc1ccccc1C(=O)NCC(=O)N1CCN(C/C=C/c2ccccc2)CC1	> 56.6
CC(C)c1ccc(NS(=O)(=O)c2ccc(N3C(=O)CCC3=O)cc2)cc1	43.6 (≈ 117 µM)

Compound	solubility kinetic [µg/mL]
Cc1cccc(OCCSc2nc3ccccc3n2CCC(=O)O)c1	53.4 (≈ 150 µM)
CC1CCN(C(=O)/C(=C\c2ccco2)NC(=O)c2ccccc2)CC1	> 50.8
CC1CCC(NC(=O)C(=O)Nc2ccc3c(c2)OCO3)CC1 (stereo not given)	0.5 (≈ 1.64 µM)
CSc1cccc(NC(=S)N2CCC(c3ccccc3)C2)c1 (stereo not given)	2.2 (≈ 6.7 µM)
O=C(NCCN1CCOCC1)Nc1ccc(F)cc1	> 40.1
O=C(COC(=O)c1ccco1)NC1CCCc2ccccc21 (stereo not given)	> 44.9
Cc1cc(N2CCCC2)c(F)cc1/C=C\[N+](=O)[O-]	0.4 (≈ 1.6 µM)
O=C(O)c1ccc[n+](Cc2ccc([N+](=O)[O-])cc2)c1.[Br-]	> 50.9
O=C(Nc1ccc(Nc2ccccc2)cc1)c1ccccc1	1.6 (≈ 5.55 µM)
CC(=O)N(CCN(C)C)c1nc2cc3c(cc2s1)OCCO3.Cl	47.6
Cn1c(O)c(C=Nc2ccc(F)cc2)c(=O)[nH]c1=O	11.9 (≈ 45.2 µM)
CC(C)(CO)NCC#Cc1ccccc1.Cl	> 36
O=C(CC(=O)c1ccccc1)Nc1ccccn1	> 36
COc1ccc2nc(NC(=O)c3ccc([N+](=O)[O-])o3)sc2c1	2 (≈ 6.26 µM)
CNC(=O)CO/N=C/c1ccc(N(C)C)cc1	> 35.3
O=c1oc2ccccc2n1Cc1cccc(C(F)(F)F)c1	2.2 (≈ 7.5 µM)
O=C(O)c1cc(NC(=O)C2CCCO2)cc(C(=O)O)c1 (stereo not given)	> 41.9
O=C(Nc1ccc2c(c1)OCCO2)c1cccc(Cl)c1	36.9 (≈ 127 µM)
CC(C)NC(=O)CCCn1cc([N+](=O)[O-])cn1	> 36
O=[N+]([O-])c1cccc(Nc2c3ccccc3nc3ccccc23)c1	2.8 (≈ 8.88 µM)
O=C(NC(=S)N1CCCCCC1)c1cccc([N+](=O)[O-])c1	> 46.1
CC(O)c1nc2cc([N+](=O)[O-])ccc2n1Cc1ccccc1 (stereo not given)	6.9 (≈ 23.2 µM)
CCOc1ccc(NC(=O)NCCCCc2ccccc2)cc1	0.4 (≈ 1.28 µM)
CCN1CNC(=S)N(c2ccccc2C)C1	> 35.3

Reference: PubChem BioAssay AID1996
